Assay results published in patent US12485107B2, “Methods for the prevention or treatment of cytokine storm” (Beth Israel Deaconess Medical Center, Inc., priority 2019, dated 2025).
Entries after “also recorded” stand apart in the source; their conditions may differ.

Assays:
[1] = tested on: B/CMBA.Ov murine ovarian epithelial cells; assay: Annexin V/PI cell death analysis of B/CMBA.Ov cells; format: cell-based; conditions: 5 μM, 24 hours, vs vehicle
Protocol: Murine (ID8) or human (OVCAR5) ovarian tumor cells were treated with vehicle or a chemotherapeutic agent (e.g., cisplatin, carboplatin, or paclitaxel) as described. B/CMBA.Ov murine ovarian epithelial cells were treated with vehicle or PTUPB (1 or 5 μM) for 24 hours. The floating population (e.g., dead cells or “debris”) was collected, and the remaining adhered cells were trypsinized and combined with the dead cells. RAW264.7 murine macrophages were treated with vehicle or PTUPB (5 μM) for 24 hours. The floating population was collected and the remaining adhered cells were detached using a cell scraper (Corning Inc., Corning, NY) and combined with the dead cells. Cells were counted via hemocytometer, pelleted, and resuspended in PBS at 1×10^6 cells/mL. Next, 2×10^5 cells were stained with annexin V and propidium iodide (PI) according to FITC Annexin V/Dead Cell Apoptosis Kit protocol (Life Technologies, Carlsbad, CA). Staining was assessed using the BD LSR Fortessa (BD Biosciences, San Jose, CA) at the Dana-Farber Cancer Institute Jimmy Fund Flow Cytometry Core, and analyzed using FlowJo software (Tree Star Inc., Ashland, OR). Experiments were performed three times with similar results.

ID8 tumor cells = assay: MTT proliferation assay; format: cell-based, murine; conditions: 1-10 μM, 24 hours
Protocol: Cell Proliferation Kit 1 (MTT) (Roche, Basel, Switzerland) was used according to recommended protocol to quantify proliferation. ID8 cells were plated at 5×10^3 cells/well in 96-well plates with DMEM supplemented with 1% FBS and 1% GPS and incubated overnight. Cells were re-fed with DMEM supplemented with 1% FBS and 1% GPS and vehicle or PTUPB (1, 5, or 10 μM). After a 24 hour incubation at 37° C., 10 μL of MTT reagent was added to each well and incubated for 4 hours at 37° C. Next, 100 μL of solubilizing solution was added to each well and incubated overnight at 37° C. VersaMax microplate reader (Molecular Devices, San Jose, CA) was used to quantify the results of the assay. Absorbance readings were normalized to vehicle. Experiments were performed three times with similar results.

[2] = tested on: RAW264.7 murine macrophages; assay: LC-MS/MS oxylipin profiling of conditioned medium of debris-stimulated RAW264.7 macrophages; format: cell-based; conditions: 5 μM, 2 hours; paclitaxel-generated ID8 debris
Protocol: Macrophages were treated with vehicle or PTUPB (1-10 μM) in Dulbecco's phosphate-buffered saline containing calcium and magnesium (PBS^+/+) (Lonza, Basel, Switzerland) and incubated for 2 hours at 37° C. Carboplatin- or paclitaxel-generated ID8 or OVCAR5 debris was added to murine or human macrophages, respectively, at a 1:4 (macrophage:dead cell body) ratio and incubated for 1 hour at 37° C. Next, plates were aspirated, macrophages were re-fed with serum-free medium, and incubated overnight at 37° C. The conditioned medium was collected the next day, centrifuged at 1100 rpm for 5 minutes to remove particulates, and stored at −20° C. until further analysis via cytokine array, ELISA, or LC-MS/MS. Collection of RAW264.7 murine macrophage conditioned medium was repeated using debris from three distinct collections for a total of three separate experiments. Collection of human monocyte-derived macrophage conditioned medium was repeated using peripheral blood monocytes from three different human donors and debris from three distinct collections for a total of three separate experiments. Collection of primary murine peritoneal macrophages was repeated using macrophages pooled from 5-10 C57BL/6 female mice and debris from two distinct collections for a total of two separate experiments.
Oxylipins in conditioned medium from 3 biological repeats were analyzed by LC-MS/MS as described previously (Yang et al., Anal. Chem. 81(19):8085-8093 (2009)). In brief, 1 mL of medium was loaded onto the conditioned Oasis HLB solid phase extraction cartridge (Waters, Milford, MA), washed with 5% methanol solution, and eluted with 0.5 mL of methanol and 1.5 mL of ethyl acetate consequently. The elution was concentrated and reconstituted in 50 μL of methanol solution before injection into the UPLC/MS/MS system (Agilent 1200 SL and Sciex 4000 Qtrap system). The optimized parameters for LC-MS/MS were described in detail previously (Yang et al., supra).

[3] = tested on: debris-stimulated orthotopic ovarian tumor (ID8); assay: Debris-stimulated orthotopic ID8 ovarian tumor model; format: in vivo, mice; conditions: PTUPB 30 mg/kg/day
Protocol: All animal studies were reviewed and approved by the Animal Care and Use Committee of Beth Israel Deaconess Medical Center, Boston, MA Mice were housed at a maximum of 5 animals per cage in a pathogen-free facility with unlimited access to sterile water and chow. Daily welfare evaluations and animal sacrifices were carried out according to the Committee guidelines. For murine injections, chemotherapy-generated murine (ID8) or human (OVCAR5) ovarian tumor cell debris was combined with ID8 or OVCAR5 living cells at equal volumes in PBS. Six-week-old female C57BL/6 (The Jackson Laboratory, Bar Harbor, ME) or SCID mice (Charles River, Cambridge, MA) were injected subcutaneously or intraperitoneally with 100 μL/mouse of ID8 or OVCAR5 cells, respectively. For orthotopic injections, 6-week-old C57BL/6 female mice were injected with 20 μL/mouse of matrigel (Becton Dickinson and Company, Franklin Lakes, NJ) mixed with paclitaxel-generated ID8 debris and/or ID8 living cells at a 1:1 (matrigel:cells) ratio directly into the right ovarian bursa. Systemic treatment with PTUPB (30 mg/kg/day) or control was administered via mini-osmotic pumps (Alzet Inc., Cupertino, CA) implanted into the peritoneum of the mice 4 weeks post-injection. Treatment ended 28 days after implantation of the pumps. […]

[4] = tested on: RAW264.7 murine macrophages; format: cell-based; conditions: 5 μM, 2 hours pre-treatment
[5] = tested on: human monocyte-derived macrophage; format: cell-based; conditions: 5 μM, 2 hours
[6] = tested on: RAW264.7 murine macrophages; format: cell-based; conditions: RFU, percent increase above vehicle-treated macrophages
[7] = tested on: primary peritoneal murine macrophages; format: cell-based; conditions: RFU, percent increase above vehicle-treated macrophages
[8] = kidney injury model; Hye Khan et al. 2016; cited from earlier work

SMILES: NS(=O)(=O)c1ccc(-n2nc(CCCNC(=O)Nc3ccc(C(F)(F)F)cc3)cc2-c2ccccc2)cc1 [PTUPB, 4-(5-phenyl-3-{3-[3-(4-trifluoromethyl-phenyl)-ureido]propyl}-pyrazol-1-yl) benzenesulfonamide]
- induction of cell death of ovarian epithelial cells (B/CMBA.Ov) [1]: did not induce cell death
- proliferation of ID8 tumor cells in vitro (ID8 tumor cells): inhibited proliferation
- debris-stimulated surge of COX-derived lipid mediators PGF2α, PGD2, PGJ2 released by macrophages [2]: suppressed this debris-stimulated surge of bioactive lipids; also recorded: inhibits the surge
- reduction of PGE2, THF diol, 15-HETE, 11-HETE, 5-HETE by debris-stimulated macrophages [2]: neutralized the reduction of these lipids; also recorded: neutralizing the reduction
- release of 15-oxoETE by macrophages in the presence of debris [2]: suppressed the release of 15-oxoETE
- debris-stimulated orthotopic ovarian tumor growth [3]: suppressed debris-stimulated orthotopic ovarian tumor growth
- survival compared to control, paclitaxel-generated debris orthotopic model ([3]; log-rank test=7.91, p=0.005): significantly prolonged survival
- cytokine storm released by macrophages stimulated with aflatoxin B1-generated Hepa 1-6 debris [4]: prevents the aflatoxin B1-induced cytokine storm; also recorded: able to inhibit; also recorded: prevented
- cytokine storm induced by aflatoxin B1-generated HepG2 debris in human monocyte-derived macrophages [5]: inhibited
- macrophage phagocytosis of aflatoxin B1-generated tumor cell debris, RAW264.7 [6]: able to stimulate macrophage phagocytosis; also recorded: stimulates macrophage phagocytosis
- macrophage phagocytosis of aflatoxin B1-generated tumor cell debris, primary peritoneal murine macrophages [7]: stimulates macrophage phagocytosis
- release of pro-inflammatory cytokines, such as CCL2/MCP-1 [8]: suppressed
